Data taken from US11850286B2, “Sulfamide linker, conjugates thereof, and methods of preparation” (priority 2014, dated 2023).

Assay: Determination of HPLC retention time (RP-HPLC, polarity)
Assay type: physicochemical
Description: Samples of compounds 19-38 were injected on an HPLC system equipped with an Phenomenex Luna C18(2) 5μ, 150×4.6 mm, 100 Å column and eluted with either a gradient of 10% MeCN (0.1% TFA)/90% water (0.1% TFA) to 90% MeCN (0.1% TFA)/10% water (0.1% TFA) or a gradient of 10% MeCN/90% 10 mM potassium phosphate buffer pH 7.4 to 90% MeCN/10% 10 mM potassium phosphate buffer pH 7.4. The retention times obtained for these compounds are depicted in Table 3.

[1] = RP-HPLC C18, MeCN/10 mM potassium phosphate buffer pH 7.4 gradient
[2] = RP-HPLC C18, MeCN/water gradient with 0.1% TFA

Compound | retention time [1] [min] | retention time [2] [min]
COc1cc2cc(c1Cl)N(C)C(=O)C[C@H](OC(=O)[C@H](C)N(C)C(=O)CCCCCNC(=O)CCOCCOCCOCCOCCOCCOCCOCCOCCOCCOCCOCCOCCOCCOCCOCCOCCOCCOCCOCCOCCOCCOCCOCCOCCNC(=O)OCC1C3CCC#CCCC31)[C@]1(C)O[C@H]1[C@H](C)[C@@H]1C[C@@](O)(NC(=O)O1)[C@H](OC)/C=C/C=C(\C)C2 (some centres unmarked) [Compound 32] | 9.7 | 9.7
COc1cc2cc(c1Cl)N(C)C(=O)C[C@H](OC(=O)[C@H](C)N(C)C(=O)CCCCCNC(=O)CCOCCOCCOCCOCCNC(=O)OCC1C3CCC#CCCC31)[C@]1(C)O[C@H]1[C@H](C)[C@@H]1C[C@@](O)(NC(=O)O1)[C@H](OC)/C=C/C=C(\C)C2 (some centres unmarked) [Compound 30] | 10.6 | 10.5
COc1cc2cc(c1Cl)N(C)C(=O)C[C@H](OC(=O)[C@H](C)N(C)C(=O)CCCCCNC(=O)CCOCCOCCOCCOCCOCCOCCOCCOCCOCCOCCOCCOCCNC(=O)OCC1C3CCC#CCCC31)[C@]1(C)O[C@H]1[C@H](C)[C@@H]1C[C@@](O)(NC(=O)O1)[C@H](OC)/C=C/C=C(\C)C2 (some centres unmarked) [Compound 31] | 10.1 | 10.1
O=C(CCCCCCNC(=O)OCC1C2CCC#CCCC21)NCc1ccccc1 (centres unmarked) [Compound 19, BCN-Heptanoic Acid Benzylamide] | 11.4 | 11.4
COc1cc2cc(c1Cl)N(C)C(=O)C[C@H](OC(=O)[C@H](C)N(C)C(=O)CCCCCNC(=O)OCc1ccc(NC(=O)[C@H](CCCNC(N)=O)NC(=O)[C@@H](NC(=O)OCCN(CCOC(=O)N[C@H](C(=O)N[C@@H](CCCNC(N)=O)C(=O)Nc3ccc(COC(=O)NCCCCCC(=O)N(C)[C@@H](C)C(=O)O[C@H]4CC(=O)N(C)c5cc(cc(OC)c5Cl)C/C(C)=C/C=C/[C@@H](OC)[C@@]5(O)C[C@H](OC(=O)N5)[C@@H](C)[C@@H]5O[C@@]45C)cc3)C(C)C)S(=O)(=O)NC(=O)OCCOCCNS(=O)(=O)NC(=O)OCC3C4CCC#CCCC43)C(C)C)cc1)[C@]1(C)O[C@H]1[C@H](C)[C@@H]1C[C@@](O)(NC(=O)O1)[C@H](OC)/C=C/C=C(\C)C2 (some centres unmarked) [Compound 38] | 9.5 | 11.1
COc1cc2cc(c1Cl)N(C)C(=O)C[C@H](OC(=O)[C@H](C)N(C)C(=O)CCCCCNC(=O)OCc1ccc(NC(=O)[C@H](CCCNC(N)=O)NC(=O)[C@@H](NC(=O)OCCOCCNS(=O)(=O)NC(=O)OCC3C4CCC#CCCC43)C(C)C)cc1)[C@]1(C)O[C@H]1[C@H](C)[C@@H]1C[C@@](O)(NC(=O)O1)[C@H](OC)/C=C/C=C(\C)C2 (some centres unmarked) [Compound 36] | 9.3 | 10.4
O=C(NCCCCCOC(=O)NS(=O)(=O)NCc1ccccc1)OCC1C2CCC#CCCC21 (centres unmarked) [Compound 21] | 9.2 | 11.6
COc1cc2cc(c1Cl)N(C)C(=O)C[C@H](OC(=O)[C@H](C)N(C)C(=O)CCCCCNC(=O)OCc1ccc(NC(=O)[C@H](CCCNC(N)=O)NC(=O)[C@@H](NC(=O)OCCN(CCOC(=O)N[C@H](C(=O)N[C@@H](CCCNC(N)=O)C(=O)Nc3ccc(COC(=O)NCCCCCC(=O)N(C)[C@@H](C)C(=O)O[C@H]4CC(=O)N(C)c5cc(cc(OC)c5Cl)C/C(C)=C/C=C/[C@@H](OC)[C@@]5(O)C[C@H](OC(=O)N5)[C@@H](C)[C@@H]5O[C@@]45C)cc3)C(C)C)S(=O)(=O)NC(=O)OCC3C4CCC#CCCC43)C(C)C)cc1)[C@]1(C)O[C@H]1[C@H](C)[C@@H]1C[C@@](O)(NC(=O)O1)[C@H](OC)/C=C/C=C(\C)C2 (some centres unmarked) [Compound 37] | 10.5 | 11.2
CN(C(=O)OCCCCCNC(=O)OCC1C2CCC#CCCC21)S(=O)(=O)NCc1ccccc1 (centres unmarked) [Compound 22] | 12.6 | 12.7
O=C(CCCCCCNC(=O)OCC1C2CCC#CCCC21)NS(=O)(=O)NCc1ccccc1 (centres unmarked) [Compound 20] | 9.6 | 11.6
